Values of other authors as cited in patent US20210350875A1, “HIGH THROUGHPUT METHOD AND SYSTEM FOR MAPPING INT[…] DIAGRAMS” (The Trustees of Princeton University, priority 2018, published 2021).

Tested on: phase separation
Details: positive control agent, 10 wells, FIG. 2B

Substance: hexanediol
- inhibition of phase separation: fully inhibit phase separation
